According to ChEMBL document CHEMBL4000172, “Identification of a novel 5-amino-3-(5-cyclopropylisoxazol-3-yl)-1-isopropyl-1H-pyrazole-4-carboxamide as a specific RET kinase inhibitor” (Eur J Med Chem, 2017):

Key:
[1] = molecular target: T1, Proto-oncogene tyrosine-protein kinase receptor Ret (Homo sapiens, UniProt P07949); assay: Inhibition of human RET using KKKSPGEYVNIEFG as peptide substrate in presence of [gamma33P]ATP by radiometric assay
[2] = Stability in mouse liver microsomes assessed as compound remaining at 1 uM after 15 mins; assay type: ADME, microsome; settings: read-out: Stability
[3] = Stability in rat liver microsomes assessed as compound remaining at 1 uM after 15 mins; assay type: ADME, microsome; settings: read-out: Stability
[4] = Stability in rat liver microsomes assessed as compound remaining at 1 uM after 30 mins; assay type: ADME, microsome; settings: read-out: Stability
[5] = Stability in human liver microsomes assessed as compound remaining at 1 uM after 15 mins; assay type: ADME, microsome; settings: read-out: Stability
[6] = Stability in human liver microsomes assessed as compound remaining at 1 uM after 30 mins; assay type: ADME, microsome; settings: read-out: Stability
[7] = molecular target: Proto-oncogene tyrosine-protein kinase receptor Ret (Homo sapiens, UniProt P07949, V804M); assay: Inhibition of human RET V804M mutant using peptide substrate KKKVSRSGLYRSPS MPENLNRPR in presence of [gamma33P]ATP by radiometric assay
[8] = tested on: Proto-oncogene tyrosine-protein kinase receptor Ret (Homo sapiens), P07949 [V804M]
Description: Inhibition of RET V804M mutant (unknown origin) transfected in mouse Ba/F3 cells assessed as reduction in cell viability by CellTiter-Glo luminescence assay

[9] = Cytotoxicity against human Nthy-ori 3-1 cells assessed as reduction in cell viability by CellTiter-Glo luminescence assay; assay type: cell-based
[10] = tested on: Proto-oncogene tyrosine-protein kinase receptor Ret (Homo sapiens), P07949 [C634W]
Description: Inhibition of RET C634W mutant in human TT cells assessed as reduction in cell viability by CellTiter-Glo luminescence assay

[11] = Induction of apoptosis in human Nthy-ori 3-1 cells assessed as increase in cleaved PARP level at 5 to 20 uM after 48 hrs by Western blot method; assay type: cell-based; settings: nthy-ori 3-1, 48 h
[12] = molecular target: T1, Proto-oncogene tyrosine-protein kinase receptor Ret
Description: Inhibition of RET (unknown origin) transfected in mouse Ba/F3 cells assessed as reduction in cell viability by CellTiter-Glo luminescence assay

[13] = Cytotoxicity against mouse BA/F3 cells assessed as reduction in cell viability by CellTiter-Glo luminescence assay; assay type: cell-based, BaF3
[14] = Induction of apoptosis in human Nthy-ori 3-1 cells assessed as increase in cleaved PARP level at 5 uM after 48 hrs by Western blot method; assay type: cell-based; settings: nthy-ori 3-1, 48 h

Chain of Proto-oncogene tyrosine-protein kinase receptor Ret (Homo sapiens, UniProt P07949, V804M) (P07949 29-1114 V804M limits assumed): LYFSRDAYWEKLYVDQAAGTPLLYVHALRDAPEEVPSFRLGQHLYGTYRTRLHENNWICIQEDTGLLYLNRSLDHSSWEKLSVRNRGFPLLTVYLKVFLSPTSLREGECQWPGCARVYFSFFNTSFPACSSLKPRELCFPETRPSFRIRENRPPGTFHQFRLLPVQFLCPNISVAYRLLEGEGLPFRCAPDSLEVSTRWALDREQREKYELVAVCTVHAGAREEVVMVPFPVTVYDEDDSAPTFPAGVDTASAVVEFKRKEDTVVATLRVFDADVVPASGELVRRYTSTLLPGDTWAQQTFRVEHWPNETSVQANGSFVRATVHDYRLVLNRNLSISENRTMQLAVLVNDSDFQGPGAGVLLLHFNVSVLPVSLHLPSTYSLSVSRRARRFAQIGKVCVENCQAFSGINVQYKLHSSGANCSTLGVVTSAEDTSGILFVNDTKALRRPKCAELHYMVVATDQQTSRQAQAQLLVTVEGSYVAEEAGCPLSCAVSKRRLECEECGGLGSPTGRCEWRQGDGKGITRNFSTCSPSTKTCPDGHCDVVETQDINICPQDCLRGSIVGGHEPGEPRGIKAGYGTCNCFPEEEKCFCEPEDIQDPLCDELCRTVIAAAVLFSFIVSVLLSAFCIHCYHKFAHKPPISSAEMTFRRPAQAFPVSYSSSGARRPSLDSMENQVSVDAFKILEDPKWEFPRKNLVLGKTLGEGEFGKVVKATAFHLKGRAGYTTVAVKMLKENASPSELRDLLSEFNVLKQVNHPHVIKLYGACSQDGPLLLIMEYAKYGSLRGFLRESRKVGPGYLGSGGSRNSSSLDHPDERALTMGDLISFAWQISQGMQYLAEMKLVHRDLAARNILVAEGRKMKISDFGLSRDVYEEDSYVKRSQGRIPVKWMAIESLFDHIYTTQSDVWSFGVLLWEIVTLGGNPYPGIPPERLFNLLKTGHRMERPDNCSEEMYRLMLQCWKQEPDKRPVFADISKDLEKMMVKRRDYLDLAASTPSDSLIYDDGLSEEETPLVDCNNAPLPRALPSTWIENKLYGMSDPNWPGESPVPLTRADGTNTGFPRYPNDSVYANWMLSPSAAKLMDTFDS
Chain of Proto-oncogene tyrosine-protein kinase receptor Ret (Homo sapiens), P07949 [V804M] (P07949 whole entry V804M): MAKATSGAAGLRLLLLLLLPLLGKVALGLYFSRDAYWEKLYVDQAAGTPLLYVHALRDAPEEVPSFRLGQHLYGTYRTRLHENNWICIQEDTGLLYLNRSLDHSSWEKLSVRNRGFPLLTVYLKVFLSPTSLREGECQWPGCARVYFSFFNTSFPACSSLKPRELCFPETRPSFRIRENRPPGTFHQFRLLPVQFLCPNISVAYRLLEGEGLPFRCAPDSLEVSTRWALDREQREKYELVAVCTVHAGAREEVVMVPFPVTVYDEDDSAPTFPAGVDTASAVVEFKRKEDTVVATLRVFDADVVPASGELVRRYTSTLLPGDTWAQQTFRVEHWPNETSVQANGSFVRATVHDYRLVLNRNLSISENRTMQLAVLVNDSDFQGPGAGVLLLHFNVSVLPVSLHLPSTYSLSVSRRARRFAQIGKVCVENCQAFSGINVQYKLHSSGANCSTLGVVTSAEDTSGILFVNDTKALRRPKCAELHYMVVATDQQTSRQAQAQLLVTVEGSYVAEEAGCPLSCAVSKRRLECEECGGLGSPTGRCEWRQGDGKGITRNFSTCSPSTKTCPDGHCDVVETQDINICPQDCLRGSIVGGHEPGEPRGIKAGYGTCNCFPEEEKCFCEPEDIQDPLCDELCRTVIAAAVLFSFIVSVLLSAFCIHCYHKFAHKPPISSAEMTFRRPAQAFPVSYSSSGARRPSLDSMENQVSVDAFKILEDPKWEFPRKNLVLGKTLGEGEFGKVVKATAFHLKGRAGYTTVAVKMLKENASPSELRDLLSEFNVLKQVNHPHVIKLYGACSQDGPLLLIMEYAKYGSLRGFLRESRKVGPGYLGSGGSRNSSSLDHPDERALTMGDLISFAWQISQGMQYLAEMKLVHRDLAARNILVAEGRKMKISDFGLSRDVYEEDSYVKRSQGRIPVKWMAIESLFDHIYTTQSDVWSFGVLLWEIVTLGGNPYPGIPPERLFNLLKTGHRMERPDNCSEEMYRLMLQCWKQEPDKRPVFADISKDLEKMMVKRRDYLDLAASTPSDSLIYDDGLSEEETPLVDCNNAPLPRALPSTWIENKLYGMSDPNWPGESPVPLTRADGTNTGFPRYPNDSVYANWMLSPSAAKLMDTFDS
T1 sequence (P07949 whole entry): as the sequence (P07949 whole entry V804M) above, with M804V counted along it
Chain of Proto-oncogene tyrosine-protein kinase receptor Ret (Homo sapiens), P07949 [C634W] (P07949 whole entry C634W): as the sequence (P07949 whole entry V804M) above, with C634W, M804V counted along it

CC(C)n1nc(-c2cc(C(C)(C)C)on2)c(C(N)=O)c1N gave an IC50 [1] of 2220 nM and a remaining at 0.25 h, 1 µM [2] of 78%.
Molecule CCc1cc(-c2nn(C(C)C)c(N)c2C(N)=O)no1 has an IC50 [1] of 631 nM and a remaining at 0.25 h, 1 µM [2] of 15.1%.
In the case of CC(C)c1cc(-c2nn(C(C)C)c3ncnc(N)c23)no1, the remaining at 0.25 h, 1 µM [3] is reported as 3.8%, the remaining at 0.5 h, 1 µM [4] is reported as 4.1% and the remaining at 0.25 h, 1 µM [2] is reported as 5.1%. It also gave a remaining at 0.25 h, 1 µM [5] of 29% and a remaining at 0.5 h, 1 µM [6] of 4.6%.
For CC(C)n1nc(-c2cc(-c3ccc(F)cc3)on2)c(C(N)=O)c1N, the IC50 [1] was 416 nM and the remaining at 0.25 h, 1 µM [2] was 85.2%.
Cc1ccc(-c2cc(-c3nn(C(C)C)c(N)c3C(N)=O)no2)cc1 gave an IC50 [1] of 1660 nM and a remaining at 0.25 h, 1 µM [2] of 61.8%.
CC(C)c1cc(-c2nn(C(C)C)c(N)c2C(N)=O)no1 gave an IC50 [1] of 1260 nM and a remaining at 0.25 h, 1 µM [2] of 51.6%.
CC(C)n1nc(-c2cc(-c3ccccc3)on2)c(C(N)=O)c1N gave an IC50 [1] of 236 nM and a remaining at 0.25 h, 1 µM [2] of 60.8%.
CC(C)n1nc(-c2cc(C3CC3)on2)c(C(N)=O)c1N showed a remaining at 0.25 h, 1 µM [3] of 70%, an IC50 [7] of 252 nM and an IC50 [1] of 44 nM. For the same molecule, the GI50 [8] was 6980 nM, the GI50 [9] was > 10000 nM and the remaining at 0.5 h, 1 µM [4] was 69%. For the same molecule, the GI50 [10] was 1660 nM, the Activity [11] was “Non-Toxic” and the GI50 [12] was 870 nM. The GI50 [13] was > 10000 nM, the remaining at 0.25 h, 1 µM [2] was 62.5% and the remaining at 0.25 h, 1 µM [5] was 73%. It also gave a remaining at 0.5 h, 1 µM [6] of 45.1%.
In the case of CC(C)n1nc(-c2cc(-c3ccccn3)on2)c(C(N)=O)c1N, the IC50 [1] is reported as 4800 nM and the remaining at 0.25 h, 1 µM [2] is reported as 49%.
Molecule CC(C)n1nc(-c2cc(C3CCCCC3)on2)c(C(N)=O)c1N has an IC50 [1] of 2700 nM and a remaining at 0.25 h, 1 µM [2] of 40.6%.
CC(C)n1nc(-c2cc(Cc3ccccc3)on2)c(C(N)=O)c1N gave an IC50 [1] of 1640 nM and a remaining at 0.25 h, 1 µM [2] of 54.6%.
COc1cc2nccc(Oc3ccc(NC(=O)C4(C(=O)Nc5ccc(F)cc5)CC4)cc3)c2cc1OC [CABOZANTINIB] gave a GI50 [8] of 740 nM, a GI50 [9] of 2920 nM and a GI50 [10] of 260 nM. The GI50 [12] was 70 nM, the GI50 [13] was > 10000 nM and the Activity [14] was “Toxic”.
In the case of CC(C)n1nc(-c2coc(C3CC3)n2)c2c(N)ncnc21, the IC50 [1] is reported as 139 nM and the remaining at 0.25 h, 1 µM [2] is reported as 2.8%.
Nc1ncnc2[nH]nc(-c3cc(C4CC4)on3)c12 gave a remaining at 0.25 h, 1 µM [2] of 1.4%.
For CC(C)n1nc(-c2cc(-c3ccsc3)on2)c(C(N)=O)c1N, the IC50 [7] was 2900 nM, the IC50 [1] was 162 nM and the GI50 [8] was > 10000 nM. The GI50 [9] was > 10000 nM, the GI50 [10] was > 10000 nM and the GI50 [12] was > 10000 nM. The GI50 [13] was > 10000 nM and the remaining at 0.25 h, 1 µM [2] was 11.8%.
In the case of CC(C)n1nc(-c2cc(-c3cccs3)on2)c(C(N)=O)c1N, the IC50 [7] is reported as 1220 nM, the IC50 [1] is reported as 78 nM and the GI50 [8] is reported as > 10000 nM. For the same molecule, the GI50 [9] was > 10000 nM, the GI50 [10] was > 10000 nM and the GI50 [12] was > 10000 nM. For the same molecule, the GI50 [13] was > 10000 nM and the remaining at 0.25 h, 1 µM [2] was 32.1%.
CC(C)n1nc(-c2ccon2)c2c(N)ncnc21 gave a remaining at 0.25 h, 1 µM [2] of 2.6%.
CC(C)n1nc(-c2cc(-c3cccnc3)on2)c(C(N)=O)c1N gave an IC50 [1] of 3390 nM and a remaining at 0.25 h, 1 µM [2] of 86.7%.
